Assay results from patent publication US20170327549A1, “Adenylation Enzyme Inhibitors” (Stichting Het Nederlands Kanker Instituut - antoni van …, priority 2014, published 2017).

Target: T1, Uba1 (Homo sapiens, UniProt P22314)
T1 sequence (P22314 1-1058): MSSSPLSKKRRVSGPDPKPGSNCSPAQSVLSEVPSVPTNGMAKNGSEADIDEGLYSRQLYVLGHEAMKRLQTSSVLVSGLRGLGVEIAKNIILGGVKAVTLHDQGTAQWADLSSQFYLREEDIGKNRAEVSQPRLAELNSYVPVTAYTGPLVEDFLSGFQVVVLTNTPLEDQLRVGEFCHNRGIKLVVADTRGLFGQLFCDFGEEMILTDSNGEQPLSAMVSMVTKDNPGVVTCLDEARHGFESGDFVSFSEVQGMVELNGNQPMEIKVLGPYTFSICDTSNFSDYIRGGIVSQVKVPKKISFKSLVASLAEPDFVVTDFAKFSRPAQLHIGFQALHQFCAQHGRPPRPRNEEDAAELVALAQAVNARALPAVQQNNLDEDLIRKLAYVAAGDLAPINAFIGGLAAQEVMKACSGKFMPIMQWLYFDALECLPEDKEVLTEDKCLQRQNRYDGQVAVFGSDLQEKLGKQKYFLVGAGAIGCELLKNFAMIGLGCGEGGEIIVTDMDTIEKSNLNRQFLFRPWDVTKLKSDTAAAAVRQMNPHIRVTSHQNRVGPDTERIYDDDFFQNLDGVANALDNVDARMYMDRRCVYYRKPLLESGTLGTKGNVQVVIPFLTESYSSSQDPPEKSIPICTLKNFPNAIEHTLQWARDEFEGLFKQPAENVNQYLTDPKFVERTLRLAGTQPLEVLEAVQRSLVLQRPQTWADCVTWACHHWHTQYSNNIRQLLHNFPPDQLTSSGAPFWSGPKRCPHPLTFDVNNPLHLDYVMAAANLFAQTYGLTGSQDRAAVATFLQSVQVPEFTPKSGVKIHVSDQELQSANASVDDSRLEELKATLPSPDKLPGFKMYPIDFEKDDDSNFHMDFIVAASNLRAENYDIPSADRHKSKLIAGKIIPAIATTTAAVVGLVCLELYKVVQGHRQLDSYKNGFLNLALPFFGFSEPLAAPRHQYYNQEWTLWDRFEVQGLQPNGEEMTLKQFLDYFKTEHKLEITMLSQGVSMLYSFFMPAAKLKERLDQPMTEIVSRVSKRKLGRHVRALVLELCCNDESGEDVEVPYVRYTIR
Assay: Peptide inhibitors of Ub-E1 thioester formation
Type: biochemical
Method: Peptides VYRFYGG and VYRFYGΔAla of varying concentrations (10, 50, 100, 200, 500, 700, 1000 μM) were incubated with 0.3 μM Uba1 in the presence of 1 mM ATP and 10 mM MgCl2 in TBS buffer (50 mM Tris, 150 mM NaCl, pH=7.5) for 15 min at room temperature. TAMRA-Ub (1 μM) was added to the reaction and samples were taken at two time points, respectively 15 sec and 15 min. The proteins were separated by SDS-PAGE and the TAMRA-Ub-E1 conjugates were visualized using a fluorescence scanner (λex=530 nm; λem=580 nm).

[1] = initial velocities measured at 15 seconds
[2] = reactions allowed to proceed for 15 min

| Substance | inhibitory potency against Uba1 activity relative to VYRFYGG (after 15 min incubation, quantified from gel scanning) | inhibition of (TAMRA-Ub)-E1 formation [1] | inhibition of (TAMRA-Ub)-E1 formation [2] |
| --- | --- | --- | --- |
| VYRFYG-ΔAla | higher inhibitory potency against Uba1 activity | inhibitory effect | prolonged inhibition of the E1 |
| VYRFYGG [reference compound] |  | inhibitory effect | no detectable inhibition of E1 activity |
